What all share (format): cell-based
In experiment [1] the test system is E. coli (AmpC). Put plainly: microbe, parasite or virus in culture. The note with it: for MIC of aztreonam with beta-lactamase inhibitor: AZ + BLI at 2 μg/mL; for Activity of Beta-Lactam 5 with beta-lactamase inhibitor: Beta-Lactam 5 + BLI at 2 μg/mL; for MIC of ceftazidime with beta-lactamase inhibitor: Ceft + BLI at 2 μg/mL; for MIC of meropenem with beta-lactamase inhibitor: Mero + BLI at 2 μg/mL. The method, then: (§1) MICs were determined by the broth microdilution method in accordance with Clinical and Laboratories Institute (CLSI) guidelines. In brief, fresh overnight bacterial cultures were suspended in sterile saline, and adjusted to a 0.5 McFarland turbidity standard. Bacterial suspensions were then diluted in cation adjusted Mueller-Hinton Broth (MHB II; BBL) to yield a final inoculum of approximately 5×10^5 colony-forming units (CFU)/mL. A master plate of antibiotics was prepared at a concentration equivalent to hundred-fold the highest desired final concentration in 100% dimethyl sulfoxide (DMSO). The master antibiotic plate was then diluted by serial twofold dilution with a multichannel pipette. The resulting dilution series of compounds were diluted 1:10 with sterile water or a solution of beta-lactamase inhibitor prepared at a concentration equivalent to eleven-fold the desired final concentration in deionized water leading to a 10% DMSO final concentration. A volume of 10 μL of the drug dilution series was transferred to 96-well assay plates. Assay plates were inoculated with 90 μL of bacterial suspensions and incubated at 35° C. for 20 hrs. The assay plates were read using a microtiter plate reader (Molecular Devices) at 600 nm as well as by visual observation with a reading mirror. The lowest concentration of the compound that prevented visible growth was recorded as the MIC. Performance of the assay was monitored by testing aztreonam against laboratory quality control strains in accordance with guidelines of the CLSI.
(§2) Synergy or potentiation of beta-lactam antibiotics through inhibition of Q-lactamases was assessed against an isogenic panel of E. coli strains, each expressing a unique beta-lactamase, and against clinical strains.
The gene encoding AmpC was PCR amplified from the genome of strain P. aeruginosa PAO1 (NB52019) (GenBank ID U5R279) using primer pair E252 (gccCTCGAGggcgaggccccggcggatcgc) (SEQ ID NO: 17) and E253 (tgaGAATTCtcagcgcttcagcggcacct) (SEQ ID NO: 18).
The PCR products were then digested with XhoI and EcoRI and ligated into similarly digested plasmid pAH63-pstS(BlaP). Plasmid pAH63-pstS(BlaP) is a derivative of plasmid pAH63 (J Bacteriol: 183(21): 6384-6393) made by cloning the TEM-1 (bla) promoter and signal peptide encoding region from plasmid pBAD (J Bacteriol. 1995 July 177(14):4121-30) into plasmid pAH63. This fragment was PCR amplified from pBAD using primer pair E192 (ttcaCTGCAGtgaacgttgcgaagcaacggC) (SEQ ID NO:19) and E194 (TCGAggatcctcgagagcaaaaacaggaaggcaaaatgccg) (SEQ ID NO:20), digested with PstI and BamHI and inserted into similarly digested plasmid pAH63. Therefore, expression of beta-lactamases from pAH63-pstS(BlaP) based constructs is constitutive and the signal sequence is provided to direct these proteins to the periplasm. Plasmid pAH63 based vectors are used for insertion into the genome in single copy, however, to provide higher expression levels to allow more sensitive detection of the susceptibility of compounds to the expressed beta-lactamases, the expression inserts contained in these vectors were moved to the replicative multicopy vector pBAD-Kan (J Bacteriol. 1995 July 177(14):4121-30). To accomplish this, the inserts encompassing the beta-lactamase genes, with the associated TEM promoter and signal sequences, were PCR amplified from their corresponding vectors using primer E268 (ccgTCTAGAcggatggcctttttgcgtttc) (SEQ ID NO:21) and E202 (aatcGAATTCttactgaccattaacgcccaagc) (SEQ ID NO:22) for the KPC2 construct, E204 (aatcGAATTCttaacgctgccagtgctcaatc) (SEQ ID NO:23) for the SHV-12 construct and E203 (aatcGAATTCttacagaccgtcggtgacaatc) (SEQ ID NO:24) for the CTX-M-15 construct. These fragments were then digested with XbaI and EcoRI, and each was inserted into pBAD18-kan that had been digested with the same enzymes to generate multicopy vectors expressing KPC-2, SHV-12 and CTX-M-15, respectively. […]

Experiment [2] deals with K. pneumoniae NB29323 (CTX-M-15, OXA-48, VEB-1). The note with it: AZ + BLI at 2 μg/mL. The method, then:
as §1, §2

Experiment [3] relates to E. coli (TEM-10). Briefly: microbe, parasite or virus in culture. The note with it: for MIC of aztreonam with beta-lactamase inhibitor: AZ + BLI at 2 μg/mL; for Activity of Beta-Lactam 5 with beta-lactamase inhibitor: Beta-Lactam 5 + BLI at 2 μg/mL; for MIC of ceftazidime with beta-lactamase inhibitor: Ceft + BLI at 2 μg/mL; for MIC of meropenem with beta-lactamase inhibitor: Mero + BLI at 2 μg/mL. The method, then: as §1, with “MIC.” for “MIC. Performance of the assay was monitored by testing aztreonam against laboratory quality control strains in accordance with guidelines of the CLSI.”
as §2
(§3) Construction of E. coli isogenic strains, NB27273-CDY0105 (OXA-18) and NB27273-CDY0048 (TEM-10). […] The gene encoding OXA-18 was then digested with XhoI and EcoRI and inserted into this vector, from which the gene for GIM-1 had been removed with XhoI and EcoRI.
From this template DNA, three fragments were generated by PCR using the following primer pairs;
This fragment was then digested with XbaI and EcoRI and inserted into pBAD-kan which was also cut with the same enzymes.
(§4) These final vectors for expression of OXA-18 and TEM-10 were transformed into BW25113 pspB to generate strains NB27273-CDY0105 (expressing OXA-18) and NB27273-CDY0048 (expressing TEM-10).

In experiment [4] the test system is E. coli (OXA-18). Briefly: microbe, parasite or virus in culture. The note with it: for MIC of aztreonam with beta-lactamase inhibitor: AZ + BLI at 2 μg/mL; for Activity of Beta-Lactam 5 with beta-lactamase inhibitor: Beta-Lactam 5 + BLI at 2 μg/mL; for MIC of ceftazidime with beta-lactamase inhibitor: Ceft + BLI at 2 μg/mL; for MIC of meropenem with beta-lactamase inhibitor: Mero + BLI at 2 μg/mL; for MIC of piperacillin with beta-lactamase inhibitor: Pip + BLI at 2 μg/mL. The method, then:
as §1, with “MIC.” for “MIC. Performance of the assay was monitored by testing aztreonam against laboratory quality control strains in accordance with guidelines of the CLSI.”
as §2, §3, §4

Each structure is given as a SMILES string.

Regarding `NC(=O)[C@@H]1CC[C@@H]2CN1C(=O)N2OS(=O)(=O)O` [Avibactam], in experiment [1], the “MIC of aztreonam with beta-lactamase inhibitor” value is at most 0.06 µg/mL, the “Activity of Beta-Lactam 5 with beta-lactamase inhibitor” value is 0.125 µg/mL, the “MIC of ceftazidime with beta-lactamase inhibitor” value is 0.125 µg/mL and the “MIC of meropenem with beta-lactamase inhibitor” value was at most 0.06 µg/mL. In addition, the “Activity of aztreonam with beta-lactamase inhibitor” value in experiment [2] stood at 2 µg/mL. In experiment [3], the “MIC of aztreonam with beta-lactamase inhibitor” value came out at 0.25 µg/mL, the “Activity of Beta-Lactam 5 with beta-lactamase inhibitor” value was 0.125 µg/mL, the “MIC of ceftazidime with beta-lactamase inhibitor” value came to 1 µg/mL and the “MIC of meropenem with beta-lactamase inhibitor” value was at most 0.06 µg/mL. Moreover, in experiment [4], the “MIC of aztreonam with beta-lactamase inhibitor” value was 1 µg/mL, the “Activity of Beta-Lactam 5 with beta-lactamase inhibitor” value came out at 0.125 µg/mL, the “MIC of ceftazidime with beta-lactamase inhibitor” value came to 0.5 µg/mL and the “MIC of meropenem with beta-lactamase inhibitor” value was at most 0.06 µg/mL. In addition, in experiment [4], the “MIC of piperacillin with beta-lactamase inhibitor” value was determined as 2 µg/mL.

Turning to `O=C1NC[C@@H]2C[C@@H]3CN(C(=O)N3OS(=O)(=O)[O-])[C@H]12.[Na+]` [Example 1, Sodium (4R,5aS,8aS)-2,8-dioxohexahydro-2H-1,4-methanopyrrolo[3,4-d][1,3]diazepin-3(4H)-yl sulfate], in experiment [1], the “MIC of aztreonam with beta-lactamase inhibitor” value amounted to 0.125 µg/mL, the “Activity of Beta-Lactam 5 with beta-lactamase inhibitor” value came out at 0.25 µg/mL, the “MIC of ceftazidime with beta-lactamase inhibitor” value was 0.25 µg/mL and the “MIC of meropenem with beta-lactamase inhibitor” value was at most 0.06 µg/mL. Further, the “Activity of aztreonam with beta-lactamase inhibitor” value in experiment [2] was found to be 0.25 µg/mL. Also, in experiment [3], the “MIC of aztreonam with beta-lactamase inhibitor” value stood at 0.125 µg/mL, the “Activity of Beta-Lactam 5 with beta-lactamase inhibitor” value was 0.125 µg/mL, the “MIC of ceftazidime with beta-lactamase inhibitor” value worked out at 0.25 µg/mL and the “MIC of meropenem with beta-lactamase inhibitor” value is at most 0.06 µg/mL. In experiment [4], the “MIC of aztreonam with beta-lactamase inhibitor” value was 1 µg/mL, the “Activity of Beta-Lactam 5 with beta-lactamase inhibitor” value was 0.25 µg/mL, the “MIC of ceftazidime with beta-lactamase inhibitor” value amounted to 0.5 µg/mL and the “MIC of meropenem with beta-lactamase inhibitor” value was at most 0.06 µg/mL. In addition, in experiment [4], the “MIC of piperacillin with beta-lactamase inhibitor” value turned out to be 2 µg/mL.

For `O=C(NC1CCNCC1)[C@@H]1CC[C@@H]2CN1C(=O)N2OS(=O)(=O)O` [Relebactam], in experiment [1], the “MIC of aztreonam with beta-lactamase inhibitor” value was determined as 0.125 µg/mL, the “Activity of Beta-Lactam 5 with beta-lactamase inhibitor” value was found to be 0.25 µg/mL, the “MIC of ceftazidime with beta-lactamase inhibitor” value was determined as 0.125 µg/mL and the “MIC of meropenem with beta-lactamase inhibitor” value is at most 0.06 µg/mL. Also, the “Activity of aztreonam with beta-lactamase inhibitor” value in experiment [2] is 8 µg/mL. For the same compound, in experiment [3], the “MIC of aztreonam with beta-lactamase inhibitor” value was 2 µg/mL, the “Activity of Beta-Lactam 5 with beta-lactamase inhibitor” value amounted to 0.25 µg/mL, the “MIC of ceftazidime with beta-lactamase inhibitor” value was 8 µg/mL and the “MIC of meropenem with beta-lactamase inhibitor” value is at most 0.06 µg/mL. For the same compound, in experiment [4], the “MIC of aztreonam with beta-lactamase inhibitor” value was above 64 µg/mL, the “Activity of Beta-Lactam 5 with beta-lactamase inhibitor” value was 0.25 µg/mL, the “MIC of ceftazidime with beta-lactamase inhibitor” value was above 64 µg/mL and the “MIC of meropenem with beta-lactamase inhibitor” value is at most 0.06 µg/mL. For the same compound, the “MIC of piperacillin with beta-lactamase inhibitor” value in experiment [4] was above 32 µg/mL.

The record behind these values is patent publication US10065957B2, “Beta-lactamase inhibitors” (Novartis AG, priority 2016, dated 2018).
